Structures are written as SMILES. Converted amounts (≈) assume the structure as drawn. “And” between values parts separate entries of the source, which are not always exact repeats. Identical values can stand only once. Like-named read-outs stand apart in the source and are kept apart here.

Assay [1] deals with multiple strains of MRSA. Description: MICs (minimal inhibitory concentrations) vs multiple strains of MRSA. It is filed as cell-based, Staphylococcus aureus. To be noted: for Ox MIC in presence of compound: compound at 0.25 mg/L; for Ox MIC alone: no compound.
In assay [2] the target is VraR (Staphylococcus aureus, UniProt Q7A4R9). The experiment in a line: biochemical. Type of assay: binding. The note with it: His-tagged VraR; NB = No Binding.
In assay [3] the test system is test strain 923 pPvra-lux. Description: Secondary screen / synergy confirmation of Top 40, relative growth with oxacillin. Type of assay: cell-based, Staphylococcus aureus. To be noted: Top 40 library, compound at maximum non-GI conc. As to the method:
In the secondary screen each microtiter plate contained either cells in TSB alone (16 replicates), cells with oxacillin (2 μg/mL, 31 replicates), or cells with test compound and oxacillin (2 μg/mL, 49 wells). Each compound was assayed in four separate biological replicates.
Synergy Confirmation of “Top 40”. […]

Assay [4] has as its system vraSR promoter (Pvra-lux reporter in strain 923). Type of assay: cell-based, Staphylococcus aureus. As to the method:
In the secondary screen each microtiter plate contained either cells in TSB alone (16 replicates), cells with oxacillin (2 μg/mL, 31 replicates), or cells with test compound and oxacillin (2 μg/mL, 49 wells). Each compound was assayed in four separate biological replicates. […]

Assay [5] relates to test strain (923 pPvra-lux). The experiment in a line: Growth inhibition by compound alone (maximum non-growth-inhibitory concentration). It is filed as cell-based, Staphylococcus aureus. To be noted: compound alone; maximum concentration where it did NOT inhibit growth.
The target in assay [6] is cytoplasmic domain of VraS (VraS-C) (Staphylococcus aureus, UniProt Q99SZ7). The experiment in a line: biochemical. It is filed as binding.
The target in assay [7] is PurC (unrelated protein, control) (Bacillus anthracis, UniProt Q81ZH5). Type of assay: binding. The note with it: read-out: KD PurC (control).
Assay [8] concerns test strain 923 pPvra-lux (USA300 MRSA). Description: Primary screen, relative growth in presence of oxacillin. To be noted: compound 10 μM with oxacillin 2 μg/mL, absorbance 24 h, <0.50 = dead cells = hit.
The subject of assay [9] is vraSR promoter (Pvra-lux reporter in strain 923). The experiment in a line: Primary screen, relative luminescence (vraSR expression). The note with it: primary screen, compound 10 μM with oxacillin 2 μg/mL; <0.50 = vraSR repressed = hit.
In assay [10] the test system is 923 containing pPvra-lux. Description: Oxacillin MIC of test strain in 96-well format. Type of assay: cell-based, Staphylococcus aureus.
The test system of assay [11] is strain 923. To be noted: strain 923, CLSI guidelines; cited from earlier work.
The subject of assay [12] is strain 923. The experiment in a line: Oxacillin MIC of strain 923. The note with it: Staphylococcus aureus; strain 923, cultured in the 96-well format. Type of assay: cell-based.
The subject of assay [13] is vraSR expression (Pvra-lux reporter in strain 923). The experiment in a line: Validation of test strain: oxacillin induction of luminescence. The note with it: luminescence of 923 Pvra-lux, 2 hours. It is filed as cell-based, Staphylococcus aureus.
Assay [14] concerns vanA containing VRSA strain VRS2. To be noted: cited from earlier work; for MIC compound (Clo, Pyr, Gos): compound alone.
The subject of assay [15] is vancomycin intermediate resistant Staphylococcus aureus strain, VISA 2283. To be noted: cited from earlier work; for potentiation of vancomycin: VISA; for MIC Van: vancomycin alone.
Assay [16] has as its system hetero VISA isolate, hVISA 2275. To be noted: cited from earlier work; for MIC compound (Clo, Pyr, Gos): compound alone; for potentiation of vancomycin: hVISA.
Assay [17] has as its system vanA containing VRSA strain VRS1. The note with it: cited from earlier work; for MIC compound (Clo, Pyr, Gos): compound alone.
Setting [18] is: isolate 1176, SCCmec II, ST 231.
[19] abbreviates: isolate 8004-01, SCCmec III, ST 239.
The mark [20] stands for this setting: isolate 8010-01, SCCmec IV, ST 8.
The mark [21] stands for this setting: isolate 8227-01, SCCmec IV, ST 87.
Setting [22] is: isolate 11095, SCCmec II, ST 105.
Where [23] appears, read: isolate Q2461, SCCmec VT, ST 59.

Sequence of cytoplasmic domain of VraS (VraS-C) (Q99SZ7 70-347): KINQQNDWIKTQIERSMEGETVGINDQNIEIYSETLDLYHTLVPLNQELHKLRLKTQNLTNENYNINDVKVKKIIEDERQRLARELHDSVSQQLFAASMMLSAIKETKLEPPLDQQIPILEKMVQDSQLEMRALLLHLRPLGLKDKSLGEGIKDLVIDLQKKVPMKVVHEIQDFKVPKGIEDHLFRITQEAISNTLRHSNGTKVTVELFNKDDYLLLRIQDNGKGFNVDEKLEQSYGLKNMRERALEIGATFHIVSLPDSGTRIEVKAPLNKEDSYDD
Sequence of PurC (unrelated protein, control) (Q81ZH5 whole entry, looked up): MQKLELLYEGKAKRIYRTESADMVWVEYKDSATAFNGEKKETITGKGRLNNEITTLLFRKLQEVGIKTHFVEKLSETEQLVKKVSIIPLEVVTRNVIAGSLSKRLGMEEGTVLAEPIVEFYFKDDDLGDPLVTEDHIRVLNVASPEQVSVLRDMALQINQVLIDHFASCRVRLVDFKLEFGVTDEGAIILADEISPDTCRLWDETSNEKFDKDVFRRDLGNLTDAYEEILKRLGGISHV
Sequence of VraR (Q7A4R9 whole entry): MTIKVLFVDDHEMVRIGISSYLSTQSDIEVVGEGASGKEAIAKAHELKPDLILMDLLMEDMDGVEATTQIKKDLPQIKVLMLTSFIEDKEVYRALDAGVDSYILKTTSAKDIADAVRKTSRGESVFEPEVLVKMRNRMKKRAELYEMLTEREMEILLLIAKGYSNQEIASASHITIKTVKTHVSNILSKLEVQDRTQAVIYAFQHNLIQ

Turning to `CSc1cccc(-c2nnc(NC(=O)c3nc4ccccc4s3)o2)c1` [F2645-0188], the “Ox MIC in presence of compound” value in [1] (isolate 923, SCCmec IV, ST 8) is 2 µg/mL; in [1] (setting [18]), less than 0.5 µg/mL; in assay [1] (isolate 2169, SCCmec IV, ST 72), 0.5 µg/mL; in assay [1] (setting [19]), 64 µg/mL; in [1] (setting [20]), 0.5 µg/mL; in [1] (setting [21]), 0.5 µg/mL. Further, the “Ox MIC in presence of compound” value was 32 µg/mL in [1] (setting [22]); less than 0.13 µg/mL in [1] (isolate 13113, SCCmec II, ST 5); less than 0.13 µg/mL in assay [1] (isolate 13354, SCCmec IV, ST 5); less than 0.5 µg/mL in assay [1] (isolate 14315, SCCmec IV, ST 1); 0.25 µg/mL in [1] (setting [23]). The Kd – broadly, the constant that tells how readily two partners part at equilibrium – in [2] is more than 100 µM; in assay [6] (His-tagged VraS-C, SPR, read-out: KD) it was 56.1 ± 16.3 µM; in [6] (untagged VraS-C protein, SPR, read-out: KD), 13.2 ± 3.2 µM; in assay [7], more than 100 µM. For the same molecule, the “RG Ox avg” value in [3] worked out at 0.03. Further, the “RL Ox avg” value in [4] (Top 40 library, with oxacillin, compound at maximum non-GI conc) is listed as 0.05. Besides, the vraSR repressing synergist in assay [4] (overall class from syn and rep) is 1. confirmed. The “maximum non-GI conc” value in [5] was determined as 40 µg/mL. Moreover, the “binding to VraS-C” value in assay [6] (SPR) was “Binds”. In addition, the “RUmax VraS” value in assay [6] (new run with His-tagged VraS) is given as “(74.1 ± 10.7)”; in assay [6] (previous run with untagged VraS) it was 325 ± 33. For the same molecule, the “RG avg (relative growth)” value in assay [8] is 0.03. Moreover, the “RL avg (relative luminescence)” value in [9] turned out to be 0.37.

Take `Cc1onc(-c2ccccc2)c1C(=O)N[C@@H]1C(=O)N2[C@@H]1SC(C)(C)[C@@H]2C(=O)O` [oxacillin, reference compound]: the MIC of oxacillin in assay [10] came to 5 µg/mL. In addition, the “Ox MIC alone” value in assay [1] (isolate 923, SCCmec IV, ST 8) was 16 µg/mL; in [1] (setting [18]) it was 32 µg/mL; in assay [1] (isolate 2169, SCCmec IV, ST 72) it was 16 µg/mL; in [1] (setting [19]), 256 µg/mL; in assay [1] (setting [20]) it was 16 µg/mL; in [1] (setting [21]), 2 µg/mL. Also, the “Ox MIC alone” value in [1] (setting [22]) was 256 µg/mL; in assay [1] (isolate 13113, SCCmec II, ST 5), 16 µg/mL; in assay [1] (isolate 13354, SCCmec IV, ST 5), 8 µg/mL; in assay [1] (isolate 14315, SCCmec IV, ST 1) it was 32 µg/mL; in [1] (setting [23]), 8 µg/mL. Besides, the “24-h oxacillin MIC” value in assay [11] is 16 to 32 µg/mL. Further, the MIC (usually the lowest concentration found to suppress growth) in [12] was found to be 8 µg/mL. Also, in assay [13], the “minimum concentration sufficient for maximal vraSR expression” value amounted to 2 µg/mL.

For `Cc1cc(/C=C/c2ccc3cc(N(C)C)ccc3[n+]2C)c(C)n1-c1ccccc1` [Pyr, Pyrvinium], the Synergy category result in assay [14] was “synergistic (An FICi of ≦0.5 defines a synergistic interaction)”; in assay [15] (VISA 2283), “non syn”; in [16] (hVISA 2275), “partial (partially potentiated vancomycin (FIC i>0.5 and <1.0))”. Besides, the “potentiation of vancomycin” value is “fully potentiated” in [14], “not” in assay [15], “partially potentiated” in assay [16] and “fully potentiated” in assay [17]. Besides, the “MIC compound (Clo, Pyr, Gos)” value is 1.12 µg/mL in [14], 16 µg/mL in assay [16] (hVISA 2275) and 2.24 µg/mL in assay [17]. Further, the Kd in [2] is more than 100 µM; in [6] (new run with His-tagged VraS, NB = No Binding, read-out: KD VraS) it was 21.3 ± 3.6 µM; in assay [7] it was more than 100 µM. The “MIC (in combination) Clo+, Pyr+, Gos+” value in [16] (MIC of the compound in combination with the indicated Van concentration, hVISA 2275) was 0.56 µg/mL. The “FICi V + compound” value in assay [16] (hVISA 2275) was 0.54. The “fold decrease Van MIC” value was 2 fold in assay [16] (hVISA 2275) and 64 fold in [17]. Also, in assay [16] (in combination with compound, hVISA 2275), the “Van FIC” value is 0.50. Further, the “Clo FIC, Pyr FIC, Gos FIC” value in [16] (in combination with vancomycin, hVISA 2275) was 0.04. Moreover, in assay [16] (vancomycin MIC when used in combination with compound, hVISA 2275), the “MIC (in combination) Van+” value is 2 µg/mL. Also, the “binding to VraS-C” value in assay [6] (SPR) is reported as “binds”. Further, in assay [6] (new run with His-tagged VraS), the “RUmax VraS” value turned out to be 46.5 ± 2.9.

Consider `CN[C@H](CC(C)C)C(=O)N[C@H]1C(=O)N[C@@H](CC(N)=O)C(=O)N[C@H]2C(=O)N[C@H]3C(=O)N[C@H](C(=O)N[C@H](C(=O)O)c4cc(O)cc(O)c4-c4cc3ccc4O)[C@H](O)c3ccc(c(Cl)c3)Oc3cc2cc(c3O[C@@H]2O[C@H](CO)[C@@H](O)[C@H](O)[C@H]2O[C@H]2C[C@](C)(N)[C@H](O)[C@H](C)O2)Oc2ccc(cc2Cl)[C@H]1O` [Van, Vancomycin], for which the “MIC Van” value is 16 µg/mL (≈ 11 µM) in [14] (vancomycin alone); 8 µg/mL (≈ 5.52 µM) in [15] (VISA 2283); 16 µg/mL and 8 µg/mL in assay [15] (VISA 2283, listed as vancomycin); 4 µg/mL (≈ 2.76 µM) in assay [16] (vancomycin alone, hVISA 2275); 1024 µg/mL (≈ 707 µM) in assay [17] (vancomycin alone).

Consider `CCN(CC)CCOc1ccc(C(=C(Cl)c2ccccc2)c2ccccc2)cc1` [Clo, Clomiphene], for which the “potentiation of vancomycin” value in assay [14] was “fully potentiated”; in assay [15] it was “partially potentiated”; in [16], “partially potentiated”; in [17] it was “partially potentiated”. Also, the “MIC compound (Clo, Pyr, Gos)” value in [14] is 12 µg/mL (≈ 29.6 µM); in [15] (compound alone, VISA 2283), 12 µg/mL (≈ 29.6 µM); in assay [16] (hVISA 2275), 12 µg/mL (≈ 29.6 µM); in [17], 12 µg/mL (≈ 29.6 µM). Further, the “MIC (in combination) Clo+, Pyr+, Gos+” value in assay [15] (MIC of the compound in combination with the indicated Van concentration, VISA 2283) is 3 µg/mL. Also, the “FICi V + compound” value in assay [15] (VISA 2283) and in assay [17] was 0.75 each time. Besides, the Synergy category result is “partial (partially potentiated vancomycin (FIC i>0.5 and <1.0))” in [15] (VISA 2283); “partial (partially potentiated vancomycin (FIC i>0.5 and <1.0))” in [16] (hVISA 2275); “partial (partially potentiated vancomycin (FIC i>0.5 and <1.0))” in assay [17]. The “Van FIC” value in assay [15] (in combination with compound, VISA 2283) is 0.5. Also, the “Clo FIC, Pyr FIC, Gos FIC” value in assay [15] (in combination with vancomycin, VISA 2283) is listed as 0.25. Besides, the “MIC (in combination) Van+” value in assay [15] (vancomycin MIC when used in combination with compound, VISA 2283) is 4 µg/mL.

The values above are taken from patent publication US9675592B2, “Methods and compositions for bacteria infections” (priority 2013, dated 2017).
